Test results published in patent US7405240B2, “Substituted cyclopentanes or cyclopentanones as therapeutic agents” (Allergan, Inc., priority 2006, dated 2008).

Tests used:
hEP4 [1] = target: T1, hEP4 (Homo sapiens, UniProt P35408); test: FLIPR calcium signal, hEP4; type: cell-based; set-up: expressed in transfected cells; host or cells: HEK-293(EBNA); conditions: HEK-293(EBNA) cells expressing hEP4/Gqs5
Description: (§1) Methods for FLIPR™ Studies
(§2) HEK-293(EBNA) cells, stably expressing one type or subtype of recombinant human prostaglandin receptors (prostaglandin receptors expressed: hDP/Gqs5; hEP1; hEP2/Gqs5; hEP3A/Gqi5; hEP4/Gqs5; hFP; hIP; hTP), were cultured in 100 mm culture dishes in high-glucose DMEM medium containing 10% fetal bovine serum, 2 mM 1-glutamine, 250 μg/ml geneticin (G418) and 200 μg/ml hygromycin B as selection markers, and 100 units/ml penicillin G, 100 μg/ml streptomycin and 0.25 μg/ml amphotericin B.
(§3) Cells were seeded at a density of 5×10^4 cells per well in Biocoat® Poly-D-lysine-coated black-wall, clear-bottom 96-well plates (Becton-Dickinson) and allowed to attach overnight in an incubator at 37° C. Cells were then washed two times with HBSS-HEPES buffer (Hanks Balanced Salt Solution without bicarbonate and phenol red, 20 mM HEPES, pH 7.4) using a Denley Cellwash plate washer (Labsystems). After 45 minutes of dye-loading in the dark, using the calcium-sensitive dye Fluo-4 AM at a final concentration of 2 μM, plates were washed four times with HBSS-HEPES buffer to remove excess dye leaving 100 μl in each well. Plates were re-equilibrated to 37° C. for a few minutes.
(§4) Cells were excited with an Argon laser at 488 nm, and emission was measured through a 510-570 nm bandwidth emission filter (FLIPR™, Molecular Devices, Sunnyvale, Calif.). Drug solution was added in a 50 μl volume to each well to give the desired final concentration. The peak increase in fluorescence intensity was recorded for each well. On each plate, four wells each served as negative (HBSS-HEPES buffer) and positive controls (standard agonists: BW245C (hDP); PGE2 (hEP1; hEP2/Gqs5; hEP3A/Gqi5; hEP4/Gqs5); PGF2α (hFP); carbacyclin (hIP); U-46619 (hTP), depending on receptor). The peak fluorescence change in each drug-containing well was then expressed relative to the controls.
(§5) Compounds were tested in a high-throughput (HTS) or concentration-response (CoRe) format. In the HTS format, forty-four compounds per plate were examined in duplicates at a concentration of 10^−5 M. To generate concentration-response curves, four compounds per plate were tested in duplicates in a concentration range between 10^−5 and 10^−11 M. The duplicate values were averaged. In either, HTS or CoRe format each compound was tested on at least 3 separate plates using cells from different passages to give an n≧3.

hEP2 [2] = target: T2, hEP2 (Homo sapiens, UniProt P43116); test: cAMP assay, hEP2; type: cell-based
hEP4 [3] = target: T1, hEP4; test: Radioligand binding, EP4 receptor; set-up: expressed in transfected cells; host or cells: HEK-293; conditions: [3H]PGE2, HEK-293 cells expressing EP4
Description: (§6) HEK-293 cells stably expressing the human or feline FP receptor, or EP1, EP2, or EP4 receptors were washed with TME buffer, scraped from the bottom of the flasks, and homogenized for 30 sec using a Brinkman PT 10/35 polytron. TME buffer was added to achieve a final 40 ml volume in the centrifuge tubes (the composition of TME is 100 mM TRIS base, 20 mM MgCl2, […]; 10N HCl is added to achieve a pH of 7.4).
(§7) The cell homogenate was centrifuged at 19000 r.p.m. for 20 min at 4° C. using a Beckman Ti-60 rotor. The resultant pellet was resuspended in TME buffer to give a final 1 mg/ml protein concentration, as determined by Biorad assay. Radioligand binding competition assays vs. [3H-] 17-phenyl PGF2, (5 nM) were performed in a 100 μl volume for 60 min. Binding reactions were started by adding plasma membrane fraction. The reaction was terminated by the addition of 4 ml ice-cold TRIS-HCl buffer and rapid filtration through glass fiber GF/B filters using a Brandel cell harvester. The filters were washed 3 times with ice-cold buffer and oven dried for one hour.
(§8) [^3H-] PGE2 (specific activity 180 Ci mmol) was used as the radioligand for EP receptors. [^3H] 17-phenyl PGF2, was employed for FP receptor binding studies. Binding studies employing EP1, EP2, EP4 and FP receptors were performed in duplicate in at least three separate experiments. A […] assay volume was used. Incubations were for 60 min at 25° C. and were terminated by the addition of 4 ml of ice-cold 50 mM TRIS-HCl, followed by rapid filtration through Whatman GF/B filters and three additional 4 ml washes in a cell harvester (Brandel). Competition studies were performed using a final concentration of 5 nM [^3H]-PGE2, or 5 nM [^3H] 17-phenyl PGF2, and non-specific binding determined with 10^−5M of unlabeled PGE2, or 17-phenyl PGF2α, according to receptor subtype studied.

hEP2 [4] = target: T2, hEP2; test: FLIPR calcium signal, hEP2; type: cell-based; set-up: expressed in transfected cells; host or cells: HEK-293(EBNA); conditions: HEK-293(EBNA) cells expressing hEP2/Gqs5
Description: as §1, §2, §3, §4, §5

hEP2 [5] = target: T2, hEP2; test: Competition binding, [3H]PGE2, human EP2 receptors; set-up: expressed in transfected cells; host or cells: HEK 293; conditions: [3H]PGE2, HEK 293 cells stably expressing human EP2; read-out: hEP2 Ki
Description: Competition binding experiments were performed in a medium containing Hank's balanced salt solution, Hepes 20 mM, pH 7.3, membranes (˜60 μg protein) or 2×10^5 cells from HEK 293 cells stably expressing human EP2 receptors, [^3H]PGE2 (10 nM) and various concentrations of test compounds in a total volume of 300 μl. Reaction mixtures were incubated at 23° C. for 60 min, and were filtered over Whatman GF/B filters under vacuum. Filters were washed three times with 5 ml ice-cold buffer containing 50 mM Tris/HCl (pH 7.3). Non-specific binding was estimated in the presence of excess unlabeled PGE2 (10 μM). Binding data fitted to the binding model for a single class of binding sites, using nonlinear regression analysis. IC50 values thus obtained were converted to Ki using the equation of Ki=(IC50/(1+[L]/KD) where [L] represents PGE2 concentration (10 nM) and KD the dissociation constant for [^3H]PGE2 at human EP2 receptors (40 nM).
as §6, §7, §8

T2 sequence (P43116 whole entry): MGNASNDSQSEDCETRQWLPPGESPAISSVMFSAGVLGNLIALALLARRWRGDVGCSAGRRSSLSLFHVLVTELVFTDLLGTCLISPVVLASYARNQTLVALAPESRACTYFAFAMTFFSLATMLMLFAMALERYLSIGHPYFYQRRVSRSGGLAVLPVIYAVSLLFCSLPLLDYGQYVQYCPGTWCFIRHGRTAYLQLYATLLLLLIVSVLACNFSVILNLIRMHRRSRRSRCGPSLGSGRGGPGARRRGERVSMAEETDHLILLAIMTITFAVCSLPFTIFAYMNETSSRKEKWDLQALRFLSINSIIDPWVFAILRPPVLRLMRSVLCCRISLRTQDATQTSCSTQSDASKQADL
T1 sequence (P35408 whole entry): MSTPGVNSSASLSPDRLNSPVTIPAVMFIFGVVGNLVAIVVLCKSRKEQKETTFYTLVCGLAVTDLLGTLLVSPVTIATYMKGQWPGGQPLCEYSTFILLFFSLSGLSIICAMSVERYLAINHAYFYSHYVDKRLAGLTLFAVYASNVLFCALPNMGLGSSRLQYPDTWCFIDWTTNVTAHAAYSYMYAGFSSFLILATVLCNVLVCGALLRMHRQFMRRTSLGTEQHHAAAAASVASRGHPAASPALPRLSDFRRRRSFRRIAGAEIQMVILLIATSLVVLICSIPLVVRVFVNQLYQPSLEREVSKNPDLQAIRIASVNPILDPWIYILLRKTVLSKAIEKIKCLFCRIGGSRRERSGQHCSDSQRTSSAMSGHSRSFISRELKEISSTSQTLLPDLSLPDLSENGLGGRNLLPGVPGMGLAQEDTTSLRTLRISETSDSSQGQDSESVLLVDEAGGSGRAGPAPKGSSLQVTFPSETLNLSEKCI

Row | EC50 (hEP4 [1]) | EC50 (hEP2 [2]) | Ki (hEP4 [3]) | EC50 (hEP2 [4]) | Ki (hEP2 [5]) | Compound
1 | 823 nM | 5 nM | > 10000 nM | 18 nM | 43 nM | O=C(O)CCC/C=C\C[C@@H]1[C@@H](COc2cccc(Cl)c2)[C@H](O)C[C@H]1Cl [Example 22, (Z)-7-[(1R,2S,3R,5R)-5-Chloro-2-(3-chloro-phenoxymethyl)-3-hydroxy-cyclopentyl]-hept-5-enoic acid]
2 | 6500 nM | 7 nM | 967 nM | 41 nM | 151 nM | CC(C)c1cccc(OC[C@@H]2[C@@H](C/C=C\CCCC(=O)O)[C@H](Cl)C[C@H]2O)c1 [Example 26, (Z)-7-[(1R,2S,3R,5R)-5-Chloro-3-hydroxy-2-(3-isopropyl-phenoxymethyl)-cyclopentyl]-hept-5-enoic acid]
3 | > 10000 nM | 3 nM | 1320 nM | 61 nM | 122 nM | Cc1cccc(OC[C@@H]2[C@@H](C/C=C\CCCC(=O)O)[C@H](Cl)C[C@H]2O)c1C [Example 32, (Z)-7-[(1R,2S,3R,5R)-5-Chloro-2-(2,3-dimethyl-phenoxymethyl)-3-hydroxy-cyclopentyl]-hept-5-enoic acid]
4 | 13000 nM | 9 nM | 1840 nM | 112 nM | 155 nM | Cc1cccc(OC[C@@H]2[C@@H](C/C=C\CCCC(=O)O)[C@H](Cl)C[C@H]2O)c1 [Example 25, (Z)-7-((1R,2S,3R,5R)-5-Chloro-3-hydroxy-2-m-tolyloxymethyl-cyclopentyl)-hept-5-enoic acid]
5 | 5890 nM | 0.7 nM | 491 nM | 29 nM | 2 nM | O=C(O)CCC/C=C\C[C@@H]1[C@@H](COc2ccc(Cl)c3ccccc23)[C@H](O)C[C@H]1Cl [Example 40, (Z)-7-[(1R,2S,3R,5R)-5-Chloro-2-(4-chloro-naphthalen-1-yloxymethyl)-3-hydroxy-cyclopentyl]-hept-5-enoic acid]
6 | > 10000 nM | 58 nM | > 10000 nM | 234 nM | 951 nM | CCCC(O)c1cccc(OC[C@@H]2[C@@H](C/C=C\CCCC(=O)O)[C@H](Cl)C[C@H]2O)c1 (stereo partly drawn) [Example 52, (Z)-7-{(1R,2S,3R,5R)-5-Chloro-3-hydroxy-2-[3-(1-hydroxy-butyl)-phenoxymethyl]-cyclopentyl}-hept-5-enoic acid]
7 | 3420 nM | 27 nM | 507 nM | 301 nM | 61 nM | O=C(O)CCC/C=C\C[C@@H]1[C@@H](COc2ccc3ccccc3c2)[C@H](O)C[C@H]1Cl [Example 17, (Z)-7-[(1R,2S,3R,5R)-5-Chloro-3-hydroxy-2-(naphthalen-2-yloxymethyl)-cyclopentyl]-hept-5-enoic acid]
8 | 3720 nM | 20 nM | 1680 nM | 245 nM | 274 nM | COc1cccc(OC[C@@H]2[C@@H](C/C=C\CCCC(=O)O)[C@H](Cl)C[C@H]2O)c1 [Example 28, (Z)-7-[(1R,2S,3R,5R)-5-Chloro-3-hydroxy-2-(3-methoxy-phenoxymethyl)-cyclopentyl]-hept-5-enoic acid]
9 | 13100 nM | 40 nM | 4110 nM | 100 nM | 45 nM | O=C(O)CCCCCC[C@@H]1[C@@H](COc2cc(C(F)(F)F)cc(C(F)(F)F)c2)[C@H](O)C[C@H]1Cl [Example 16, (Z)-7-[(1R,2S,3R,5R)-2-(3,5-Bis-trifluoromethyl-phenoxymethyl)-5-chloro-3-hydroxy-cyclopentyl]-heptanoic acid]
10 | 6310 nM | 65 nM | 973 nM | 453 nM | 89 nM | O=C(O)CCCCCC[C@@H]1[C@@H](COc2ccc3ccccc3c2)[C@H](O)C[C@H]1Cl [Example 18, (Z)-7-[(1R,2S,3R,5R)-5-Chloro-3-hydroxy-2-(naphthalen-2-yloxymethyl)-cyclopentyl]-heptanoic acid]
11 | 10600 nM | 2 nM | 497 nM | 520 nM | 64 nM | O=C(O)CCC/C=C\C[C@@H]1[C@@H](COc2cc(Cl)cc(CO)c2)[C@H](O)C[C@H]1Cl [Example 65, (Z)-7-[(1R,2S,3R,5R)-5-Chloro-2-(3-chloro-5-hydroxymethyl-phenoxymethyl)-3-hydroxy-cyclopentyl]-hept-5-enoic acid]
12 | > 10000 nM | 0.7 nM | 281 nM | 10 nM | 11 nM | Cc1cc(OC[C@@H]2[C@@H](C/C=C\CCCC(=O)O)[C@H](Cl)C[C@H]2O)cc(C)c1Cl [Example 39, (Z)-7-[(1R,2S,3R,5R)-5-Chloro-2-(4-chloro-3,5-dimethyl-phenoxymethyl)-3-hydroxy-cyclopentyl]-hept-5-enoic acid]
13 | 16000 nM | 54 nM | 908 nM | 189 nM | 497 nM | CC(C)(C)c1cccc(OC[C@@H]2[C@@H](C/C=C\CCCC(=O)O)[C@H](Cl)C[C@H]2O)c1 [Example 27, (Z)-7-[(1R,2S,3R,5R)-2-(3-tert-Butyl-phenoxymethyl)-5-chloro-3-hydroxy-cyclopentyl]-hept-5-enoic acid]

Row | Compound | EC50 (hEP4 [1]) | EC50 (hEP2 [2]) | Ki (hEP4 [3]) | EC50 (hEP2 [4]) | Ki (hEP2 [5])
14 | CC(=O)OCc1cc(Cl)cc(OC[C@@H]2[C@@H](C/C=C\CCCC(=O)O)[C@H](Cl)C[C@H]2O)c1 [Example 64, (Z)-7-[(1R,2S,3R,5R)-2-(3-Acetoxymethyl-5-chloro-phenoxymethyl)-5-chloro-3-hydroxy-cyclopentyl]-hept-5-enoic acid] | 7450 nM | 6.5 nM | 381 nM | 1110 nM | 65 nM
